{"source": "patent US6683089B2", "about": "“N-allyoxyethyl-1,2,3,4,5,6-hexahydro-2,6-methano-3-benzazocine-10-ols” (Boehringer Ingelheim Pharma GmbH & Co. KG, priority 2002, dated 2004)", "note": "Where a name gives a salt, the structure may show the parent alone.", "data": [{"units": {"melting point": "°C"}, "values": [{"smiles": "C/C=C/CO[C@@H](C)CN1CC[C@@]2(C)c3cccc(O)c3C[C@@H]1C2(C)C", "note": "(as salt: hydrochloride)", "melting point": 205}, {"smiles": "C=CCO[C@@H](C)CN1CC[C@@]2(C)c3cccc(O)c3C[C@@H]1C2(C)C", "note": "(as salt: hydrochloride)", "melting point": 239}, {"smiles": "C=C(C)CO[C@@H](C)CN1CC[C@@]2(C)c3cccc(O)c3C[C@@H]1C2(C)C", "note": "(as salt: hydrochloride)", "melting point": 240}]}]}
